Patent publication US9877973B2, “Intraocular drug delivery device and associated methods” (University of Utah Research Foundation, priority 2008, dated 2018)
Where two headings read alike, the source gives them in different places.

What was measured:
[1] = rabbit, in vivo
[2] = rabbit, in vivo; remark: listed apart in the source
Procedure: The selected BDI-1 implants (from in-vitro release studies, FIG. 7) were sterilized, implanted in the capsular bag of rabbit's eyes. Two implants with different composition and dose were tested in-vivo in NZW rabbits to establish pharmacokinetics. Two rabbits were sacrificed at 2, 6, 10, 15 days and various tissue samples (aqueous humor, vitreous humor, IOL, iris/ciliary body and retina/choroid) were collected and samples were analyzed by a validated LC/MS/MS method.
A total of 8 animals (16 eyes) received the implant containing 120 μg of DXM.

[3] = AVASTIN-loaded intraocular device, ocular tissue concentration by ELISA; format: in vivo, New Zealand white rabbits; settings: 1 week post implantation of AVASTIN-loaded intraocular device
From the text: Three intraocular devices were implanted into eyes of New Zealand white rabbits under general anesthesia after lens extraction (phacoemulsification technique). Two of the devices were loaded with AVASTIN® and one was loaded with the contrast agent Galbumin as a control. Proper intraocular device position was verified by MRI as well as clinical examination.
The rabbits were sacrificed and the eyes are removed and assayed after 1 week post implantation. AVASTIN® was detected by ELISA in the retina and vitreous at concentrations of 24-48 mcg/mL, and was not present in the control rabbit eye.

Compound	direction of dexamethasone flow from the endocapsular space [1]	direction of dexamethasone flow from the endocapsular space [2]	concentration in the retina and vitreous by ELISA [3]
C[C@@H]1C[C@H]2[C@@H]3CCC4=CC(=O)C=C[C@]4(C)[C@@]3(F)[C@@H](O)C[C@]2(C)[C@@]1(O)C(=O)CO [dexamethasone]	bidirectional from the endocapsular space into both the anterior and posterior chambers	bidirectional from the endocapsular space into both the anterior and posterior chambers	–
bevacizumab [AVASTIN®]	–	–	24000 to 48000 ng/mL
